Reference: ChEMBL document CHEMBL4184313, “Enantiomeric neolignans from Picrasma quassioides exhibit distinctive cytotoxicity on hepatic carcinoma cells through ROS generation and apoptosis induction” (Bioorg Med Chem Lett, 2018)
The source made the active and inactive calls. The rule behind the calls is not given here.

What was measured:
Hep 3B2 = assay: Cytotoxicity against human Hep3B cells assessed as decrease in cell viability after 48 hrs by MTT assay; type: functional, cell-based
HepG2 [1] = assay: Cytotoxicity against human HepG2 cells assessed as decrease in cell viability after 48 hrs by MTT assay; type: functional, cell-based; conditions: HepG2, 48 h
HepG2 [2] = assay: Cell cycle arrest in human HepG2 cells assessed as <2N DNA content at 50 uM after 48 hrs by PI staining based flow cytometry (reference value: 4.18%); type: functional
HepG2 [3] = assay: Induction of apoptosis in human HepG2 cells assessed as nuclear condensation at 50 uM after 48 hrs by […] staining based fluorescence microscopy; type: functional, cell-based
HepG2 [4] = assay: Cell cycle arrest in human HepG2 cells assessed as accumulation at S phase at 50 uM after 48 hrs by PI staining based flow cytometry (reference value: 7%); type: functional
HepG2 [5] = assay: Cell cycle arrest in human HepG2 cells assessed as >4N DNA content at 50 uM after 48 hrs by PI staining based flow cytometry (reference value: 2.04%); type: functional
HepG2 [6] = assay: Induction of apoptosis in human HepG2 cells assessed as shrinkage of cells at 50 uM after 48 hrs by phase contrast microscopy; type: functional, cell-based
HepG2 [7] = assay: Induction of apoptosis in human HepG2 cells assessed as rounding of cells at 50 uM after 48 hrs by phase contrast microscopy; type: functional, cell-based
HepG2 [8] = assay: Induction of apoptosis in human HepG2 cells assessed as necrotic cells at 50 uM after 48 hrs by Annexin V-FITC/PI staining based flow cytometry (reference value: 0.62%); type: functional
HepG2 [9] = assay: Induction of apoptosis in human HepG2 cells assessed as late apoptotic cells at 50 uM after 48 hrs by Annexin V-FITC/PI staining based flow cytometry (reference value: 2.03%); type: functional
HepG2 [10] = assay: Induction of intracellular ROS accumulation in human HepG2 cells at 50 uM after 48 hrs by DCFH probe based flow cytometry; type: functional, cell-based
HepG2 [11] = assay: Induction of apoptosis in human HepG2 cells assessed as viable cells at 50 uM after 48 hrs by Annexin V-FITC/PI staining based flow cytometry (reference value: 95.7%); type: functional; conditions: HepG2, 48 h, read-out: Activity
HepG2 [12] = assay: Induction of apoptosis in human HepG2 cells assessed as early apoptotic cells at 50 uM after 48 hrs by Annexin V-FITC/PI staining based flow cytometry (reference value: 1.61%); type: functional
HepG2 [13] = assay: Induction of apoptosis in human HepG2 cells assessed as apoptotic bodies at 50 uM after 48 hrs by phase contrast microscopy; type: functional, cell-based
HepG2 [14] = assay: Cell cycle arrest in human HepG2 cells assessed as 4N DNA content at 50 uM after 48 hrs by PI staining based flow cytometry (reference value: 15.2%); type: functional
HepG2 [15] = assay: Cell cycle arrest in human HepG2 cells assessed as 2N DNA content at 50 uM after 48 hrs by PI staining based flow cytometry (reference value: 70.6%); type: functional

In the case of `COc1cc(C2Oc3c(OC)cc(/C=C/C=O)cc3C2CO)ccc1O` (racemic), the IC50 (Hep 3B2) is reported as 29.3 µM and the IC50 (HepG2 [1]) is reported as 36.5 µM.
`COc1cc([C@@H]2Oc3c(OC)cc(/C=C/CO)cc3[C@H]2CO)ccc1O` [DEHYDROCONIFERYL ALCOHOL] was tested, and the Activity (HepG2 [2]) was 3.76%, the Activity (HepG2 [3]) was “Active” and the IC50 (Hep 3B2) was 54.6 µM. For the same molecule, the Activity (HepG2 [4]) was 8.2%, the Activity (HepG2 [5]) was 1.14% and the Activity (HepG2 [6]) was “Active”. The Activity (HepG2 [7]) was “Active”, the Activity (HepG2 [8]) was 0.74% and the Activity (HepG2 [9]) was 2.37%. For the same molecule, the Activity (HepG2 [10]) was “inactive”, the viability at 50 µM (HepG2 [11]) was 94.4% and the Activity (HepG2 [12]) was 2.5%. The Activity (HepG2 [13]) was “Active”, the IC50 (HepG2 [1]) was 104 µM and the Activity (HepG2 [14]) was 16.8%. The Activity (HepG2 [15]) was 70.1%.
For `COc1cc([C@H]2Oc3c(OC)cc(/C=C/C=O)cc3[C@@H]2CO)cc(OC)c1O`, the IC50 (Hep 3B2) was 72.8 µM and the IC50 (HepG2 [1]) was 88.7 µM.
With `COc1cc(C2Oc3c(OC)cc(/C=C/CO)cc3C2CO)ccc1O` (racemic) the IC50 (Hep 3B2) was 65.5 µM and the IC50 (HepG2 [1]) was 78.6 µM.
For `COc1cc(C2Oc3c(OC)cc(/C=C/C=O)cc3C2CO)cc(OC)c1O` (racemic), the IC50 (Hep 3B2) was 76.8 µM and the IC50 (HepG2 [1]) was 80.5 µM.
Work on `COc1cc([C@H]2Oc3c(OC)cc(/C=C/C=O)cc3[C@@H]2CO)ccc1O` yielded an IC50 (Hep 3B2) of 22.4 µM and an IC50 (HepG2 [1]) of 38.1 µM.
`COc1cc([C@@H]2Oc3c(OC)cc(/C=C/C=O)cc3[C@H]2CO)cc(OC)c1O` was tested, and the IC50 (Hep 3B2) was 60.7 µM and the IC50 (HepG2 [1]) was 104 µM.
For `COc1cc([C@H]2Oc3c(OC)cc(/C=C/CO)cc3[C@@H]2CO)ccc1O`, the Activity (HepG2 [2]) was 3.86%, the Activity (HepG2 [3]) was “Active” and the IC50 (Hep 3B2) was 52.3 µM. The Activity (HepG2 [4]) was 6.2%, the Activity (HepG2 [5]) was 0.6% and the Activity (HepG2 [6]) was “Active”. The Activity (HepG2 [7]) was “Active”, the Activity (HepG2 [8]) was 1.71% and the Activity (HepG2 [9]) was 3.87%. For the same molecule, the Activity (HepG2 [10]) was “Active”, the viability at 50 µM (HepG2 [11]) was 86% and the Activity (HepG2 [12]) was 8.39%. The Activity (HepG2 [13]) was “Active”, the IC50 (HepG2 [1]) was 35.6 µM and the Activity (HepG2 [14]) was 19.1%. For the same molecule, the Activity (HepG2 [15]) was 70.2%.
`COc1cc([C@@H]2Oc3c(OC)cc(/C=C/C=O)cc3[C@H]2CO)ccc1O` showed an IC50 (Hep 3B2) of 31.5 µM and an IC50 (HepG2 [1]) of 38.7 µM.
